Source: PMC11443480, “Natural Rubrolides and Their Synthetic Congeners as Inhibitors of the Photosynthetic Electron Transport Chain” (Journal of Natural Products, 2024)
Where “and” joins values, the source holds several entries; their conditions need not be identical. Equal entries are not always repeated. Entries after “also recorded” stand apart in the source; their conditions may differ.

How the values were obtained:
[1] = tested on: photosynthetic electron transport chain in isolated spinach thylakoids; assay: Hill reaction: light-dependent ferricyanide reduction in isolated spinach thylakoids (basal); assay type: biochemical, spinach (Spinacea oleracea L.); conditions: basal conditions, 0.05–100 μM tested, triplicate; for IC50: read-out: IC50, inhibition by 50% of the light-dependent ferricyanide reduction
Description: The ability of natural rubrolides and their synthetic analogues to interfere with the chloroplast electron transport chain was evaluated by measuring the Hill reaction in thylakoid membranes isolated from spinach leaves. The results were summarized as the concentrations able to inhibit by 50% the rate measured in untreated controls (IC50, Table 2).
Thylakoid membranes were isolated from spinach (Spinacea oleracea L.) leaves. Plant material was resuspended in 5 mL g^–1 of ice-cold 20 mM Tricine-NaOH buffer (pH 8.0) containing 10 mM NaCl, 5 mM MgCl2, and 0.4 M sucrose and homogenized for 30 s in a blender at maximal speed. The homogenate was filtered through surgical gauze, and the filtrate was centrifuged at 4 °C for 1 min at 500g; the supernatant was further centrifuged for 10 min at 1,500g. Pelleted chloroplasts were osmotically swollen by resuspension in a sucrose-lacking buffer. The suspension was immediately diluted 1:1 with sucrose-containing buffer, kept on ice in the dark, and used within a few hours from the preparation. Chlorophyll content was calculated after diluting with 80% (v/v) acetone on the basis of Arnon’s formula. The basal rate of photosynthetic electron transport was measured by following light-driven ferricyanide reduction. Membrane aliquots corresponding to 3 μg of chlorophyll were incubated at 24 °C in wells of 96-well-plates in a final volume of 200 μL in the presence of 20 mM Tricine-NaOH buffer (pH 8.0), 10 mM NaCl, 5 mM MgCl2, 0.2 M sucrose, and 2 mM K3Fe(CN)6. The assay was initiated by exposure to saturating light (600 μmol m^–2 s^–1), and the rate of ferricyanide reduction was measured at 30 s intervals for 10 min using a Ledetect 96 plate reader (Labexim, Lengau, Austria) equipped with a LED plugin at 420 nm. Activity was calculated over the linear portion of the curve from a molar extinction coefficient of 1,000 M^–1 cm^–1. Rubrolides were dissolved in DMSO to obtain 10 mM solutions, which were then diluted with H2O, as appropriate. Their effect upon the Hill reaction was evaluated in parallel assays in which the compounds were added to the reaction mixture to concentrations ranging from 0.05 to 100 μM. Each dose was carried out at least in triplicate, and results were expressed as percentage of untreated controls. Mean values ± SE over replicates are reported. The concentrations causing 50% inhibition (IC50) and their confidence limits were estimated by nonlinear regression analysis using Prism 6 for Windows, version 6.03 (GraphPad Software).

[2] = tested on: photosynthetic electron transport chain in isolated spinach chloroplast; assay: Ferricyanide reduction under uncoupling and phosphorylating conditions; assay type: biochemical, spinach (Spinacea oleracea L.); conditions: 10^–7 to 10^–5 M range
Description: Diuron was included as a positive control.
(§1) Phosphorylating electron flow was evaluated under the same conditions but in the presence of 0.5 mM ADP and 2 mM K2HPO4. Uncoupled activity was measured following the addition of 2 mM NH4Cl to the basal reaction mixture containing aliquots of membrane preparations corresponding to 1.5 μg of chlorophyll. To evaluate the effect on PSII only, uncoupled activity was blocked by the addition of the cytochrome b6f inhibitor 2,5-dibromo-6-isopropyl-3-methyl-1,4-benzoquinone (DBMIB) at […], and an electronic transfer from H2O to ferricyanide that excludes PSI (H2O → PSII → D1 protein → phenylendiamine → ferricyanide) was restored through the addition of 0.1 mM phenylenediamine. In this case, due to the lower reduction rate, aliquots of membrane preparations corresponding to 6 μg of chlorophyll were used.

PSII = molecular target: T1, PSII (Spinacia oleracea, UniProt P69560); assay: Partial electron flow involving PSII only (excluding PSI); assay type: biochemical, spinach (Spinacea oleracea L.); conditions: DBMIB-blocked, phenylenediamine-restored flow excluding PSI
T1 construct: Thylakoid membranes were isolated from spinach (Spinacea oleracea L.) leaves; from tissue; host or cells: spinach leaves (thylakoid membranes)
Text: An interference with the cytochrome b6f complex cannot be completely excluded, but this difference could simply rely on the experimental conditions employed. To evaluate the effect on PSII only, uncoupled activity is blocked by the addition of the cytochrome b6f inhibitor 2,5-dibromo-6-isopropyl-3-methyl-1,4-benzoquinone, and an electronic transfer from H2O to ferricyanide that excludes PSI is restored through addition of phenylenediamine. […] A similar effect was previously noticed also in the case of other inhibitors.[10b],[10e],[10j]
as §1

Raphanus sativus = assay: Growth of Raphanus sativus seedlings sown in the presence of the compound; assay type: in vivo, Raphanus sativus cv Scarlet Champion; conditions: 10 μM in agarized medium; growth measured at three-leaf stage, 3 weeks after sowing
Description: The ability of these compounds to interfere with plant growth was evaluated by measuring the growth of Raphanus sativus seedlings that had been sown in the presence of a given rubrolide. […] In that case, compound 5 was also found inhibitory, but at a 20-fold higher concentration (200 μM).
Figure 1 Effect of natural rubrolides 1–7 on the growth of the model plant Raphanus sativus. Seeds were sown in the presence of a given compound at a concentration of 10 μM. Controls received the same volume of DMSO (0.1%) used to dissolve the rubrolides. The commercial herbicide hexazinone was also included, as a positive control. Growth was measured when untreated plants reached the three-leaf stage, 3 weeks after sowing. Results were analyzed using Prism 6 for Windows by means of the Kolmogorov–Smirnov normality test (P = 0.05), and then subjected to 1-way ANOVA. […] Results were plotted as a box and whiskers plot showing 10–90th percentiles.
Seeds of Raphanus sativus cv Scarlet Champion were surface sterilized by treatment with ethanol for 4 min and with 3% NaClO containing 0.04% Triton X-100 for 8 min under vacuum. […] The fresh biomass of each seedling was measured at that point by a destructive harvest. […]

rapeseed = tested on: rapeseed; design: method as in PMID 38695089; conditions: cited from earlier work; for Inhibition of rapeseed growth: greenhouse treatments

Molecule	IC50 [1]	melting point	also measured
O=C1O/C(=C\c2cc(Br)c(O)c(Br)c2)C(c2cc(Br)c(O)c(Br)c2)=C1Cl [Compound 1, rubrolide B]	8.62 ± 1.89 µM	–	–
O=C1O/C(=C\c2ccc(O)c(Br)c2)C(c2ccc(O)c(Br)c2)=C1Cl [Compound 3, rubrolide K]	8 ± 2.05 µM	–	–
O=C1O/C(=C\c2ccc(O)c(Br)c2)C(c2cc(Br)c(O)c(Br)c2)=C1Cl [Compound 4, rubrolide O]	4.37 ± 0.8 µM	–	Effect on ferricyanide reduction under uncoupling and phosphorylating conditions [2]: progressive reduction of the activity; Effect on partial electron flow involving PSII only versus whole transport chain (PSII): able to inhibit the electron transfer from PSII to the cytochrome b6f complex
O=C1C=C(c2ccc(O)cc2)/C(=C/c2ccc(O)cc2)O1 [Compound 5, rubrolide E]	–	–	Effect on growth of Raphanus sativus seedlings (phytotoxicity) (Raphanus sativus): ineffective; IC50, inhibition by 50% of the light-dependent ferricyanide reduction [1]: ineffective; also recorded: lack activity; also recorded: n.e. ^a; Inhibition of rapeseed growth at 200 μM (rapeseed; 200 μM (20-fold higher concentration)): inhibitory; Inhibition of rapeseed growth (rapeseed): inhibit rapeseed growth
COc1ccc(/C=C2\OC(=O)C=C2c2ccc(O)cc2)cc1 [Compound 6, rubrolide F]	> 25 µM and 29.3 µM	–	Inhibition of rapeseed growth (rapeseed): inhibit rapeseed growth
COc1ccc(/C=C2\OC(=O)C(Cl)=C2c2ccccc2)cc1 [Compound 12]	257 ± 273 µM	–	–
O=C1O/C(=C\c2ccc(F)cc2Cl)C(c2ccccc2)=C1Cl [Compound 13]	35.9 ± 7.7 µM	145.3 to 147 °C	–
COc1ccc(Cl)cc1C1=C(Cl)C(=O)O/C1=C\c1ccc2c(c1)OCO2 [Compound 15]	–	134.9 to 136.2 °C	–
O=C1O/C(=C\c2ccc(-c3ccccc3)s2)C(c2ccc(F)cc2)=C1Cl [Compound 16]	266 ± 272 µM	218.3 to 219.8 °C (dec.)	–
O=C1O/C(=C\c2ccnc(Br)c2)C(c2ccc(F)cc2)=C1Cl [Compound 17]	–	150.3 to 152.8 °C	IC50, inhibition by 50% of the light-dependent ferricyanide reduction [1]: n.e. ^a
COc1ccc(C2=C(Cl)C(=O)O/C2=C\c2ccc(OC)c(Br)c2)cc1Cl [Compound 19]	–	–	IC50, inhibition by 50% of the light-dependent ferricyanide reduction [1]: no activity and n.e.
O=C1O/C(=C\c2ccc(O)c(Br)c2)C(c2ccc(O)c(Cl)c2)=C1Cl [Compound 20, (Z)-5-(3-Bromo-4-hydroxybenzylidene)-3-chloro-4-(3-chloro-4-hydroxyphenyl)furan-2(5H)-one]	4.97 ± 1.05 µM	210 to 213 °C (dec.)	Effect on ferricyanide reduction under uncoupling and phosphorylating conditions [2]: progressive reduction of the activity; Effect on partial electron flow involving PSII only versus whole transport chain (PSII): able to inhibit the electron transfer from PSII to the cytochrome b6f complex
CN(C)C(=O)Nc1ccc(Cl)c(Cl)c1 [Diuron, reference compound]	0.27 ± 0.01 µM	–	Effect on partial electron flow involving PSII only versus whole transport chain (PSII): very similar effectiveness
rubrolide C	–	–	Inhibition of rapeseed growth (rapeseed): inhibit rapeseed growth
rubrolide I [Compound 2]	5.54 ± 0.98 µM	–	Effect on ferricyanide reduction under uncoupling and phosphorylating conditions [2]: progressive reduction of the activity; Effect on partial electron flow involving PSII only versus whole transport chain (PSII): able to inhibit the electron transfer from PSII to the cytochrome b6f complex
